Values joined by “and” are separate entries in the source; they are usually repeats but may differ in a detail not shown here. Equal entries are not always repeated. Inconclusive results and toxic doses are left out.
Tested on: B6C3F1 mice, B16 melanoma ip, median survival T/C
Assay: NCI In Vivo Anticancer Drug Screen. Data for tumor model B16 Melanoma (intraperitoneal) in B6C3F1 mice
Details: endpoint: median survival time, higher = longer survival
Summary of the method: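 Antitumor effect was judged in mice with transplanted tumors by dividing the treated group's survival measure by that of vehicle controls.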

[1] = dose: 0.5 mg/kg/injection, schedule: Q01DX009 (ip), vehicle: water
[2] = dose: 0.25 mg/kg/injection, schedule: Q01DX009 (ip), vehicle: saline
[3] = dose: 0.5 mg/kg/injection, schedule: Q01DX009 (ip), vehicle: saline

In the case of `Cc1ccc(C(=O)NC2C(=O)NC(C(C)C)C(=O)N3CCCC3C(=O)N(C)CC(=O)N(C)C(C(C)C)C(=O)OC2C)c2c1Oc1c(c(C(=O)NC3C(=O)NC(C(C)C)C(=O)N4CCCC4C(=O)N(C)CC(=O)N(C)C(C(C)C)C(=O)OC3C)c3nc(-c4ccccc4)c(=O)oc3c1C)N2` (centres undefined), the T/C [1] is reported as 157 % of control.

`CN(C)/N=N/c1[nH]cnc1C(N)=O.[Cl][Cu][Cl]` was tested, and the T/C [1] was 106 % of control, the T/C (dose: 1.0 mg/kg/injection, schedule: Q01DX009 (ip), vehicle: water) was 106 % of control and the T/C (dose: 2.0 mg/kg/injection, schedule: Q01DX009 (ip), vehicle: water) was 115 % of control. For the same compound, the T/C (dose: 4.0 mg/kg/injection, schedule: Q01DX009 (ip), vehicle: water) was 109 % of control and the T/C (dose: 8.0 mg/kg/injection, schedule: Q01DX009 (ip), vehicle: water) was 109 % of control.

In the case of `CS(=O)(=O)CS(=O)(=O)OCCF`, the T/C (dose: 3.12 mg/kg/injection, schedule: Q01DX009 (ip), vehicle: saline) is reported as 107 % of control, the T/C (dose: 5.4 mg/kg/injection, schedule: Q01DX009 (ip), vehicle: saline) is reported as 100 % of control and the T/C (dose: 6.25 mg/kg/injection, schedule: Q01DX009 (ip), vehicle: saline) is reported as 116 % of control. For the same compound, the T/C (dose: 9.0 mg/kg/injection, schedule: Q01DX009 (ip), vehicle: saline) was 110 % of control and 100 % of control, the T/C (dose: 15.0 mg/kg/injection, schedule: Q01DX009 (ip), vehicle: saline) was 113 % of control and 119 % of control and the T/C (dose: 41.67 mg/kg/injection, schedule: Q01DX009 (ip), vehicle: saline) was 121 % of control and 216 % of control.

`CCOC(=O)C(N)CSC(=O)NC` (centres undefined) was tested, and the T/C (dose: 12.5 mg/kg/injection, schedule: Q01DX009 (ip), vehicle: saline) was 103 % of control and 106 % of control, the T/C (dose: 25.0 mg/kg/injection, schedule: Q01DX009 (ip), vehicle: saline) was 108 % of control and 92 % of control and the T/C (dose: 50.0 mg/kg/injection, schedule: Q01DX009 (ip), vehicle: saline) was 103 % of control and 106 % of control. The T/C (dose: 100.0 mg/kg/injection, schedule: Q01DX009 (ip), vehicle: saline) was 108 % of control and 93 % of control, the T/C (dose: 200.0 mg/kg/injection, schedule: Q01DX009 (ip), vehicle: saline) was 109 % of control and the T/C (dose: 400.0 mg/kg/injection, schedule: Q01DX009 (ip), vehicle: saline) was 124 % of control.

In the case of `CC[C@]1(O)C[C@H]2CN(CCc3c([nH]c4ccccc34)[C@@](C(=O)OC)(c3cc4c(cc3OC)N(C)[C@H]3[C@@](O)(C(=O)OC)[C@H](OC(C)=O)[C@]5(CC)C=CCN6CC[C@]43[C@@H]65)C2)C1`, the T/C (dose: 0.12 mg/kg/injection, schedule: Q01DX009 (ip), vehicle: saline) is reported as 194 % of control, the T/C (dose: 0.12 mg/kg/injection, schedule: Q01DX009 (ip), vehicle: water) is reported as 161 % of control and the T/C [2] is reported as 234 % of control. The T/C (dose: 0.25 mg/kg/injection, schedule: Q01DX009 (ip), vehicle: water) was 171 % of control and 199 % of control and 221 % of control, the T/C [3] was 215 % of control and the T/C [1] was 176 % of control and 212 % of control and 309 % of control. The T/C (dose: 15.62 micrograms/kg/injection, schedule: Q01DX009 (ip), vehicle: water) was 159 % of control, the T/C (dose: 31.25 micrograms/kg/injection, schedule: Q01DX009 (ip), vehicle: water) was 154 % of control and the T/C (dose: 62.5 micrograms/kg/injection, schedule: Q01DX009 (ip), vehicle: water) was 180 % of control. The T/C (dose: 125.0 micrograms/kg/injection, schedule: Q01DX009 (ip), vehicle: water) was 206 % of control and the T/C (dose: 250.0 micrograms/kg/injection, schedule: Q01DX009 (ip), vehicle: water) was 206 % of control.

With `COC(=O)C[C@](O)(CCC(C)(C)O)C(=O)O[C@@H]1C(OC)=C[C@]23CCCN2CCc2cc4c(cc2[C@H]13)OCO4` the T/C [2] was 124 % of control, the T/C [3] was 154 % of control and 161 % of control and the T/C (dose: 1.0 mg/kg/injection, schedule: Q01DX009 (ip), vehicle: saline) was 161 % of control and 168 % of control. For the same compound, the T/C (dose: 2.0 mg/kg/injection, schedule: Q01DX009 (ip), vehicle: saline) was 168 % of control.

`CO[C@H](/C(C)=C/C=C/C(C)=C/c1coc(C)n1)[C@H](C)[C@H]1C[C@@H](O)[C@@]2(C)O[C@H]2/C=C/[C@@H](C)[C@@H]2C[C@@H](CC(=O)O2)C[C@H]2O[C@@H]2C(=O)O1` was tested, and the T/C (dose: 0.01 mg/kg/injection, schedule: Q01DX009 (ip), vehicle: Klucel (hydroxypropylcellulose) (HPC)) was 118 % of control and 98 % of control and 102 % of control, the T/C (dose: 0.01 mg/kg/injection, schedule: Q01DX009 (ip), vehicle: other) was 94 % of control and 106 % of control and the T/C (dose: 0.03 mg/kg/injection, schedule: Q01DX009 (ip), vehicle: Klucel (hydroxypropylcellulose) (HPC)) was 111 % of control and 112 % of control and 97 % of control. For the same compound, the T/C (dose: 0.03 mg/kg/injection, schedule: Q01DX009 (ip), vehicle: other) was 110 % of control, the T/C (dose: 0.1 mg/kg/injection, schedule: Q01DX009 (sc), vehicle: Klucel (hydroxypropylcellulose) (HPC)) was 154 % of control and the T/C (dose: 0.4 mg/kg/injection, schedule: Q01DX009 (sc), vehicle: Klucel (hydroxypropylcellulose) (HPC)) was 117 % of control.
